Assays:
[1] = target: T1, 1321N1-hP2X2/3 receptor (Homo sapiens, UniProt P56373+Q9UBL9); experiment: Calcium ion mobility (FLIPR) in cells stably expressing 1321N1-hP2X2/3 receptors; type: cell-based; conditions: calcium signal, agonist at EC80
T1 construct: host or cells: 1321N1
T1 sequence (P56373 1-397): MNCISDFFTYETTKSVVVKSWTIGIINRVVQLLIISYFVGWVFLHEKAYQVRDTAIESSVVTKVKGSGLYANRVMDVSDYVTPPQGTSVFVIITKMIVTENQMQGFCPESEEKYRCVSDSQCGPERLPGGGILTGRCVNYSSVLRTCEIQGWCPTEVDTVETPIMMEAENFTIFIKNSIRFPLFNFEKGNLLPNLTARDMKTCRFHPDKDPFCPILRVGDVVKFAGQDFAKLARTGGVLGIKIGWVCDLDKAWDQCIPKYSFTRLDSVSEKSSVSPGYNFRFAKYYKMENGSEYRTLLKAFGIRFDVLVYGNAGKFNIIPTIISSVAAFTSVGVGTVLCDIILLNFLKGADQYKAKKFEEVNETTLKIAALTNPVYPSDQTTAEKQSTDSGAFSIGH
T1 sequence (Q9UBL9 1-471): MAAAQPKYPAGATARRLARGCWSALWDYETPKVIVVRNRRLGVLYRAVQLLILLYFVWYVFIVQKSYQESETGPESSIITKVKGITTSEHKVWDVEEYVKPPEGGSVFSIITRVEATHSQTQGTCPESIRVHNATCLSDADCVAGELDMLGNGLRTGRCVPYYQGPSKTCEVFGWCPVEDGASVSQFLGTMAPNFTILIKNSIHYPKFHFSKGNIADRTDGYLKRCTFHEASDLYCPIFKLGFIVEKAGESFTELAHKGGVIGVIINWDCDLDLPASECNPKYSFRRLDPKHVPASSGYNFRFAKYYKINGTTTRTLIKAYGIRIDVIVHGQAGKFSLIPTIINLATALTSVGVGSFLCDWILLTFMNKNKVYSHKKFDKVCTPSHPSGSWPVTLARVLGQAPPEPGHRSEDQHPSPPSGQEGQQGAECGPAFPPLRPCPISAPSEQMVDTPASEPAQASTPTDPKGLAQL
Protocol: Test Example 2. Determination of the Effect of the Compounds of the Present Invention on Calcium Ion Mobility in Cells Stably Expressing 1321N1-hP2X2/3 Receptors
To determine the inhibitory activity of the compounds on 1321N1-hP2X2/3 receptor.
Stably transfected cell line: 1321N1-hP2X2/3 (supplied by Shanghai ChemPartner Chemical Research Co., Ltd.).
(§1) Assay buffer: 1*HBSS+20 mM HEPES;
Cell culture medium: DMEM+10% FBS+75 μg/mL Hygromycin B+150 μg/mL G418;
(§2) Plating medium: DMEM+10% DPBS;
(§3) 0.5*Dye: 10*Dye stock+1.25 Probenecid+1*assay buffer+0.5 U/mL ATP hydrolytic enzyme;
(§4) 2. The cells were cultured to 70%-90% confluency in the cell culture medium at 37° C., 5% CO2. The medium was discarded, and the cells were added with 2 mL of Versene, and the cells were placed in an incubator at 37° C. for 2 to 5 min. The cells were collected by addition of 10 mL of plating medium and counted. The cells were seeded to the 384-well assay plate by addition of 50 μL solution (a density of 1×10^4 cells/well) to each well, and incubated for 16 to 24 hours (at least overnight).
(§5) 3. The medium was discarded, and 30 μL of 1× dye was added. The cells were incubated at 37° C. in the dark for 60 min.
(§6) 4. The compound powder was dissolved in DMSO to obtain a 20 mM stock solution. 180× compound with required concentration was formulated, and diluted in gradient for concentration points.
(§7) 5. Preparation of compound plate: 500 nL of 180× compound was transferred to the compound plate (source plate for FLIPR) using ECHO. 30 μL of assay buffer was added to each well, and the plate was shaken gently for 20 to 40 minutes.
(§8) 6. Determination: 15 μL of 3× compound was taken from each well and added to the cell plate. The samples were added by FLIPR instrument, and the calcium signals were detected. After 15 minutes, 22.5 μL of 3× agonist (EC80 concentration) was added to each well and the calcium signals were detected.
(§9) The calcium signal values were determined by FLIPR. The ratio of the 340/510 nm wavelength signals to 380/510 nm wavelength signals was used as the calculated results for each sampling time point in the experiment. The calculation of maximum minus minimum was derived from the ratio signal curve.
(§10) The percent inhibition rate and ten-point concentration data were fitted to the parametric nonlinear logistic equation by using GraphPad prism to calculate the IC50 values of the compounds.

[2] = target: T2, CYP450 enzyme isoform 2D6 (Homo sapiens, UniProt P10635); experiment: CYP enzyme single-point inhibition assay, 2D6; type: in vitro ADME; conditions: human liver microsome, single-point method
T2 construct: single-point method using human liver microsome incubation system; from tissue; host or cells: human liver microsomes
T2 sequence (P10635 whole entry, canonical isoform): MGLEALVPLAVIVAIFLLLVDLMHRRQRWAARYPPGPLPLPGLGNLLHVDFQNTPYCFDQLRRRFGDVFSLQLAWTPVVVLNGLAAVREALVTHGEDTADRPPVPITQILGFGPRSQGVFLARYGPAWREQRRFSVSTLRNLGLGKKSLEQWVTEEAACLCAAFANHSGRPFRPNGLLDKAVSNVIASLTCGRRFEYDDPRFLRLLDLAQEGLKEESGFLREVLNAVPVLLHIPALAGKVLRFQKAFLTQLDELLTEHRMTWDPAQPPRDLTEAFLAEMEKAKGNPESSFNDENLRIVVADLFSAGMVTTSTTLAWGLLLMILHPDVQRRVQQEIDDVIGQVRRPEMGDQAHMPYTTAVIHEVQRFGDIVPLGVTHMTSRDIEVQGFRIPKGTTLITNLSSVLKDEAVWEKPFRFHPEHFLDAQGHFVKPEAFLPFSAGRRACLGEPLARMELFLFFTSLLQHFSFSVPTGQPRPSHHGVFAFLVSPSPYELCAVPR
Protocol: (§11) Test Example 7. CYP Enzyme Single-Point Inhibition Assay
(§12) The inhibition of the compounds on CYP450 enzyme isoformwas rapidly predicted by single-point method using human liver microsome incubation system.
(§13) 2.5 mM NADPH: 4.165 mg of NADPH (reduced nicotinamide adenine dinucleotide phosphate) was weighed, followed by addition of 100 mM phosphate buffer to 2 mL. 0.25 mg/mL microsome solution: 4 mL of 100 mM phosphate buffer was added to 50 μL of 20 mg/mL microsome solution and mixed well.
(§14) The test compound of the Example was weighed, diluted to 10 mM with DMSO and then to 100 μM with 100 mM phosphate buffer.
(§15) 1. 40 μL of liver microsome, 10 μL of substrate and 10 μL of the test compound were added to a 96-well plate and pre-incubated for 3 min.
(§16) 2. 40 μL of NADPH was added.
(§17) 3. 300 μL of acetonitrile stop solution containing internal standard was added at 20 min.
(§18) 4. The sample was centrifuged and injected.

[3] = target: T3, 1321N1-hP2X3 receptor (Homo sapiens, UniProt P56373); experiment: Calcium ion mobility (FLIPR) in cells stably expressing 1321N1-hP2X3 receptors; type: cell-based; conditions: calcium signal, agonist at EC80
T3 construct: host or cells: 1321N1
T3 sequence (P56373 1-397): T1 sequence (P56373 1-397)
Protocol: Test Example 1. Determination of the Effect of the Compounds of the Present Invention on Calcium Ion Mobility in Cells Stably Expressing 1321N1-hP2X3 Receptors
To determine the inhibitory activity of the compounds on 1321N1-hP2X3 receptor.
Stably transfected cell line: 1321N1-hP2X3 (supplied by Shanghai ChemPartner Chemical Research Co., Ltd.).
as §1
Cell culture medium: DMEM+10% FBS+75 µg/mL Hygromycin B+300 µg/mL G418;
as §2, §3, §4, §5, §6, §7, §8, §9, §10

[4] = target: T4, CYP450 enzyme isoform 2C19 (Homo sapiens, UniProt P33261); experiment: CYP enzyme single-point inhibition assay, 2C19; type: in vitro ADME; conditions: human liver microsome, single-point method
T4 construct: single-point method using human liver microsome incubation system; from tissue; host or cells: human liver microsomes
T4 sequence (P33261 whole entry, canonical isoform): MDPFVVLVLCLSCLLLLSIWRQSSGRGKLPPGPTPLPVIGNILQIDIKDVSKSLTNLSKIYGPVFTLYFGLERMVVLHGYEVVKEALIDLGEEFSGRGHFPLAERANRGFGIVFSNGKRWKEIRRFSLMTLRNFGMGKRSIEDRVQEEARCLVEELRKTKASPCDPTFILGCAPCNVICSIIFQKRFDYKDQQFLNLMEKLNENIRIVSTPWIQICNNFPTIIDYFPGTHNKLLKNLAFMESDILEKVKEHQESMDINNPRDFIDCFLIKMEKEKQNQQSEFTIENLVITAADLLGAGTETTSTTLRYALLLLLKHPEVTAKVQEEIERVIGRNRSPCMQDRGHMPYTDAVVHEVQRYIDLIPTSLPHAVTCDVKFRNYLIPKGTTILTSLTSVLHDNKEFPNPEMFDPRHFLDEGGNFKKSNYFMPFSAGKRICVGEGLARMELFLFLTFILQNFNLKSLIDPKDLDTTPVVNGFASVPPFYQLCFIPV
Protocol: as §11, §12, §13, §14, §15, §16, §17, §18

Structure (SMILES)	IC50 [1]	IC50 [2]	IC50 [3]	IC50 [4]
CCc1cc2n(CC(=O)Nc3ccc(F)cn3)c(=O)c3ccc(C(F)(F)F)nc3n2n1 [Example 34, 2-(2-Ethyl-5-oxo-8-(trifluoromethyl)pyrazolo[1,5-a]pyrido[3,2-e]pyrimidin-4(5H)-yl)-N-(5-fluoropyridin-2-yl)acetamide]	25.2 µM	> 100 µM	0.0634 µM	> 100 µM
O=C(Cn1c(=O)c2ccc(C(F)(F)F)nc2n2nc(Br)cc12)Nc1ccc(F)cn1 [Example 61-A, 2-(2-bromo-5-oxo-8-(trifluoromethyl)pyrazolo[1,5-a]pyrido[3,2-e]pyrimidin-4(5H)-yl)-N-(5-fluoropyridin-2-yl)acetamide]	6.36 µM	> 100 µM	0.0764 µM	> 100 µM
N#Cc1cc2n(CC(=O)Nc3ccc(F)cn3)c(=O)c3ccc(C(F)(F)F)nc3n2n1 [Example 68, 2-(2-Cyano-5-oxo-8-(trifluoromethyl)pyrazolo[1,5-a]pyrido[3,2-e]pyrimidin-4(5H)-yl)-N-(5-fluoropyridin-2-yl)acetamide]	5.63 µM	> 100 µM	0.0325 µM	> 100 µM
O=C(Cn1c(=O)c2ccc(C(F)(F)F)nc2n2nccc12)Nc1ccc(F)cn1 [Example 78, N-(5-Fluoropyridin-2-yl)-2-(5-oxo-8-(trifluoromethyl)pyrazolo[1,5-a]pyrido[3,2-e]pyrimidin-4(5H)-yl)acetamide]	4.52 µM	> 100 µM	0.049 µM	> 100 µM
N#Cc1cnn2c3nc(C(F)(F)F)ccc3c(=O)n(CC(=O)Nc3ccc(F)cn3)c12 [Example 80, 2-(3-Cyano-5-oxo-8-(trifluoromethyl)pyrazolo[1,5-a]pyrido[3,2-e]pyrimidin-4(5H)-yl)-N-(5-fluoropyridin-2-yl)acetamide]	3.04 µM		0.0643 µM	

Reference: patent US20230118497A1, “PYRAZOLE-CONTAINING POLYCYCLIC DERIVATIVE INHIBITOR, PREPARATION METHOD THEREFOR AND APPLICATION THEREOF” (Shanghai Hansoh Biomedical Co., Ltd., priority 2019, published 2023)
